Measurements published in PMC6382696, “Drug Repurposing: The Anthelmintics Niclosamide and Nitazoxanide Are Potent TMEM16A Antagonists That Fully Bronchodilate Airways” (Frontiers in Pharmacology, 2019).
Read-outs that look alike come from different tables or passages of the source.

Columns and labels:
human ASM cells = test: Eact-induced depolarization of human ASM cells (FLIPR membrane potential); format: cell-based
From the text: While the method above using histamine represents the standard protocol we used to evaluate compound effects in blocking pro-contractile depolarization of human BSMCs, for some experiments provided as Supplementary Figures 1–44 we employed the cholinergics methacholine or carbachol instead of histamine, or evaluated if the TMEM16A opener, Eact, could itself act like contractants to induce BSMC membrane depolarization.
3.31 Supplementary Figure 31
Supplementary Figure 31. The small molecule TMEM16A activator, Eact , induces depolarization of primary human airway smooth muscle cells like the contractant carbachol. Kinetic traces from the FLIPR membrane potential assay indicate Eact (A) and carbachol (B) elicit a concentration dependent depolarization of human ASM cells which were serum starved for 4 hours [prf SmGM overnight + 4h prf SmBM]. The potency for Eact depolarization of ASM cells isolated from a normal, asthmatic or COPD patient is shown in panel (C). The […]
report for activation of TMEM16A. RFU, relative fluorescence units. AUC, area under the curve.
(also on this page, place not known: ‘Eact’ Carbachol TMEM16A 3.0 µM A B C)
(1 picture or pasted object on this page, not shown here)

[1] = system: human bronchial epithelial ALI cultures; test: Leukotriene (LTC4, LTB4) secretion from human bronchial epithelial ALI cultures; format: cell-based; conditions: 48 hrs, p < 0.05
Procedure: (§1) 1.2 Effects of the TMEM16A opener Eact on leukotriene secretion and Muc5AC mucin production from human bronchial epithelial air-liquid interface cultures.
(§2) Normal, asthma and COPD human bronchial epithelial (HBE) cells were from Lonza (Walkersville, MD). Cells were grown on […] transparent PET transwell membranes insert (BD biosciences, San Diego). S-ALI air-liquid interface media (Lonza) was changed every other day until the cells reached confluence, at which time the apical medium was removed to establish an air liquid interface cultures. The basolateral medium was changed every other day. All experimentation was carried out on day 14-18 after ALI establishment. At this point, mature secretory cells are present in these differentiating cultures and the cells respond with maximal […] to IL-13 (10 ng/ml) (Peprotech, […]
(§3) Human ALI cultures from a normal donor were treated with Eact, Eact vehicle and 10 ng/ml IL13 in basolateral medium for 48 hrs.
(§4) After 48hr, 100 µl of basolateral medium were collected for determining leukotriene B4 and C4 secretion using ELISA kits from Enzo Life Sciences, Inc. and LSBio LifeSpan Biosciences Inc., respectively, and by following manufacture’s protocols. […]
(§5) Levels of Muc5AC protein in apical washes was then determined using a Muc5AC ELISA kit (Cosmo Bio USA, Carlsbad, CA) and following the manufacture’s protocol.

[2] = system: human bronchial epithelial ALI cultures; test: Muc5AC secretion from human bronchial epithelial ALI cultures; format: cell-based; conditions: 5 μM, 72 hours, p < 0.05
Procedure: as §1, §2, §3, §4, §5

TMEM16A = conditions: ref Namkung et al., 2011; read-out: EC50 in activating TMEM16A; cited from earlier work
hTMEM16A (abc) = target: T1, hTMEM16A (abc) (Homo sapiens, UniProt Q5XXA6, DEL476-501); test: medchem TMEM16A halide-sensitive YFP assay, 22-point dose-response; format: cell-based; set-up: expressed in transfected cells
T1 sequence (Q5XXA6 with tags, fused parts or gaps isoform Q5XXA6-5 DEL539-564): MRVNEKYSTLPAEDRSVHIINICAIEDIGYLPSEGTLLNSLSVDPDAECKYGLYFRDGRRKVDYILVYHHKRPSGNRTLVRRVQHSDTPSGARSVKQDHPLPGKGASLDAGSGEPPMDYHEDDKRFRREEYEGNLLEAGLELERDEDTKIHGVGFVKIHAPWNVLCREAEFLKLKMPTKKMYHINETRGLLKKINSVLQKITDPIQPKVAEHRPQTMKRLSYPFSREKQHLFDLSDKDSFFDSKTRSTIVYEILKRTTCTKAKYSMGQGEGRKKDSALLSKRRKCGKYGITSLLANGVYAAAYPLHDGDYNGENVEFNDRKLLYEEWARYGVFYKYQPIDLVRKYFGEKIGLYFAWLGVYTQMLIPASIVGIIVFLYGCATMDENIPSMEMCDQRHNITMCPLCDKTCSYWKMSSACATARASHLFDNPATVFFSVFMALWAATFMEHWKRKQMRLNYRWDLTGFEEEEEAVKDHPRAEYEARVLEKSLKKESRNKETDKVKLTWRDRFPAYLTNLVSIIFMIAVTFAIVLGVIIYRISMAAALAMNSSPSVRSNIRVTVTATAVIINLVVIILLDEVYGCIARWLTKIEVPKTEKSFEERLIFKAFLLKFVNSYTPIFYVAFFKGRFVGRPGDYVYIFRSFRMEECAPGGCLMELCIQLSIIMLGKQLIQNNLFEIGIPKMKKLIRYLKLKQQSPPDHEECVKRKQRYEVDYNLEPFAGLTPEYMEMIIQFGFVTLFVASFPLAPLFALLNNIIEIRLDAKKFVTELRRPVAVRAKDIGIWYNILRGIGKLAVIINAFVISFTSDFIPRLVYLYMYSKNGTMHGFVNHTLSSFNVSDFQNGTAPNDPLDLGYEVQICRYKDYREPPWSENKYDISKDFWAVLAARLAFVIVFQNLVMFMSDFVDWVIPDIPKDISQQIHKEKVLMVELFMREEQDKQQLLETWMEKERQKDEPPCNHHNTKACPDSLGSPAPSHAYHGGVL
Procedure: The TMEM16A HEK293T eYFP (H149Q, I153L) stable cell line for medchem support was generated by transfecting 10 μg of linearized hTMEM16A(abc) DNA constructs into HEK293T eYFP (H149Q,I153L) stable cells. The transfected cells were cultured under 200 μg/ml of hygromycin B selection for 20 days and the stable pool was single cell seeded in 96 well plate and duplicated plate were made after single cell clones were formed. YFP function assay were performed on duplicated plate and clones producing higher changes in fluorescence from the YFP assay were chosen for further expansion to form a stable cell line.
Plates were incubated for 24 h at 37°C with 5% CO2. On the assay day, medium was removed and replaced with 20 μl/well of assay buffer (Hank’s Balanced Salt Solution with 10 mM HEPES pH 7.4), 10 μl/well of 40x diluted compounds was added to assay plate and it was incubated at room temperature for 30 min, after which baseline fluorescence was read in the FLIPR instrument for 10 s. Then, 5 μl/well of a 3x trigger solution (24 mM iodide, 3 μM ionomycin in assay buffer) was added and the fluorescence kinetic trace was recorded for 2 min.

cytochrome P450 enzymes = system: cytochrome P450 enzymes; set-up: method as in White, 2004; Anderson and Curran, 2007; Rossignol, 2014; conditions: ref White, 2004; Anderson and Curran, 2007; Rossignol, 2014; cited from earlier work
TMEM16A (acd) = target: T2, TMEM16A (acd) (Homo sapiens, UniProt Q5XXA6); test: QPatch whole-cell electrophysiology, HEK293 TMEM16A (acd); format: cell-based; conditions: QPatch
T2 sequence (Q5XXA6 1-986): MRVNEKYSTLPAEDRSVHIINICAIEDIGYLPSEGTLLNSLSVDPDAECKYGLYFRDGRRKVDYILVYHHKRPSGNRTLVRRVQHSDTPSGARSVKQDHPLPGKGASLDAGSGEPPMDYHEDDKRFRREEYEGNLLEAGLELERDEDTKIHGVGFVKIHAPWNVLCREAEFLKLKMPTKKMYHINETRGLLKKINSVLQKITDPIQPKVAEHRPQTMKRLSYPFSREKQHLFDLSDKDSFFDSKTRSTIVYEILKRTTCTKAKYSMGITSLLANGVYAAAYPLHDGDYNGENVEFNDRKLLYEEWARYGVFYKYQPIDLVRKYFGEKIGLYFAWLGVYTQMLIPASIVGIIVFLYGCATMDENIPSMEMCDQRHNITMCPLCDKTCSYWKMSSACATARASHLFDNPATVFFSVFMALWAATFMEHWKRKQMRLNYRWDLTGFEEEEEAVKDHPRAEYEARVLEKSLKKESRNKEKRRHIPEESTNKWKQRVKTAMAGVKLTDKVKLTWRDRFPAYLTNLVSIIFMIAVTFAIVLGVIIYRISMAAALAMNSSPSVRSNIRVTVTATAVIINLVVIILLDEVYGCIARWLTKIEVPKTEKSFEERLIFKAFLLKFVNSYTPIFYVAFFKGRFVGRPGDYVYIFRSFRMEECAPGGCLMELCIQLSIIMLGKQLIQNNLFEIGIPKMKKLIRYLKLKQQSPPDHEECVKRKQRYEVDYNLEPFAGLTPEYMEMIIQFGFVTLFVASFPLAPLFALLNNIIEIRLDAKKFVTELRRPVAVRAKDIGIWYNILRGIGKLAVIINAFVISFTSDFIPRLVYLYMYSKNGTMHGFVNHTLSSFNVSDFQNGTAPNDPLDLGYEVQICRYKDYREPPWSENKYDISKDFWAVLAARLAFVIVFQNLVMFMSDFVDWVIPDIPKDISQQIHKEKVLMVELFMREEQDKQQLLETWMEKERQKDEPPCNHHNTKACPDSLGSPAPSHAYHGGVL
From the text: HEK293 cells stably expressing the TMEM16A (acd) variant were purchased from SB Drug Discovery. The HEK293 TMEM16A (abc) stable cell line was from ChanTest and COLO-205 cells were purchased from ATCC. The same standard buffers and recording conditions listed below were used for QPatch studies on all three cell lines.
Recording Solutions: were made weekly as below and stored at room temperature until used. It is recommended not to add ATP to internal solution until immediately before using on the QPatch. The external buffer (in mM) was 140 NaCl, 4 KCl, 2 CaCl2, 1 MgCl2, 10 HEPES, 10 Glucose, pH7.4, while the internal buffer (in mM) was 110 CsCl, 20 TEA-Cl, 5.374 CaCl2, 1.75 MgCl2, 10 EGTA, 10 HEPES, 4 Na2ATP, pH 7.2.
Once established in whole-cell configuration, cells were clamped to a holding potential (Vhold) of 0 mV on 48 well single hole patch plate. A standardized IV protocol was used to elicit ionic current through the TMEM16A chloride channel at 20 s intervals. Steady-state voltage pulses were from −100 mV to +100 mV in +20 mV steps for a duration of 500 ms. After each pulse the voltage was returned to −100 mV for 50 ms to obtain tail currents, and then returned to the holding potential of 0 mV until the beginning of the next sweep. […] This ensures a minimum of 60 s per concentration incubation before measuring current block. Currents were acquired at 10 kHz and filtered at 2 kHz, leak subtraction and Rseries were disabled. A 1 MΩ minimum resistance was set because cells are held in an open channel state and therefore resistance is low.
A cumulative concentration response was measured where each cell is exposed to five concentrations of test article with a dilution factor of 1:5 (e.g., 0.048, 0.24, 1.2, 6, and 30 μM). Cells were recorded for ∼60 s per solution/compound addition. Initially, external solution is applied twice to allow currents to stabilize. Then vehicle (from the saline reservoir) is added twice to monitor any effect 0.3% DMSO might have on currents. This leads directly into the concentration runs by applying Concentration 1 (single addition) for 1 min. Concentration 2 is then applied for the subsequent minute, etc. Recovery/washout was monitored for a final minute with a final external solution addition.
[…] […] Each cell’s current magnitude was then normalized to itself at the initial 0.3% vehicle control period prior to compound application. This step is to account for differences in current size for each cell. Normalized responses to test article were plotted against their concentrations to reveal a concentration-inhibition plot.
A Normalized Group Hill fit was then performed on the plotted results to yield a pooled IC50 value, reconstructed from a minimum of two cells/concentration. The baseline response as well as the full response were constrained to 1 and 0, respectively.

airways = system: airways; set-up: method as in Stocks et al., 2014; conditions: ref Stocks et al., 2014; cited from earlier work

Compound: COCCN(C(=O)c1cc(OC)c(OC)c(OC)c1)c1nc(-c2ccccc2)cs1 [Eact]
- EC50 (human ASM cells; cells from normal, asthmatic or COPD patient, read-out: average EC50 for depolarizing human ASM cells): 1000 to 3000 nM
- EC50 (human ASM cells; read-out: average EC50 for Eact induced ASM depolarization): 1600 nM
- increase of leukotriene (LTC4, LTB4) secretion [1]: 6–12 fold
- increase of Muc5AC secretion [2]: 2–3 fold
- EC50 (TMEM16A): 3000 nM

Compound: CC(=O)Oc1ccccc1C(=O)Nc1ncc([N+](=O)[O-])s1 [Nitazoxanide]
- IC50 (hTMEM16A (abc); average, 22-point dose-response, iodide as permeant anion, read-out: TMEM16A eYFP Assay (IC50)): 1230 nM
- scope of block of ionomycin-induced iodide eYFP quenching (hTMEM16A (abc); up to 55.6 μM): partially inhibiting
- impact on cytochrome P450 enzymes (cytochrome P450 enzymes): no significant impact
- IC50 (TMEM16A (acd); outward current at +100 mV, 170 nM free intracellular calcium, ~60 s per concentration, read-out: TMEM16A Chloride Current (IC50)): 1260 ± 1310 nM
- calcium-activated chloride current inhibited (TMEM16A (acd); maximum antagonist activity): Over 80%

Compound: OCc1cc(C(O)CNCCCCCCOCCCCc2ccccc2)ccc1O (centres unmarked) [Salmeterol, salmeterol]
- onset of action (airways): 90 min
